Laboratory results from patent publication US20200339691A1, “PROTEINACEOUS MOLECULES AND USES THEREFOR” (priority 2018, published 2020).
Where a SMILES comes first, the peptide text is derived from it. The star is where a group is joined. Myristoyl = CCCCCCCCCCCCCC(=O)*

Key:
[1] = tested on: CD44^hiCD24^lo CSCs in MDA-MB-231 cells; assay: FACS analysis of CD44^hiCD24^lo cancer stem cells in MDA-MB-231 cells treated with P1 analogues; assay type: cell-based, human; settings: 50 μM peptide, 48 hours; for CD44^hiCD24^lo CSCs (%) / COI, Live Single CD44^hiCD24^lo CSCs (Cell Count): n = 1; for Average Inhibition of CSCs (%) / CD44^hiCD24^lo CSCs (%) Repeat 1 / CD44^hiCD24^lo CSCs (%) Repeat 2 / CD44^hiCD24^lo CSCs (%) Repeat 3: n = 3
Procedure: Analogues of P1 (Table 6) were designed and synthesized in accordance with the procedure of Example 5. The ability of these analogues to inhibit cancer stem cells was determined using FACS analysis on MDA-MB-231 cells, which constitutively contain approximately 90% CD44^hiCD24^lo cancer stem cells, treated with the peptides.
(§1) Non-adherent cells were removed during the washing steps.

MDA-MB-231 cells = assay type: cell-based, human; settings: 50 μM peptide, 48 hours, n = 1
From the text: as §1
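Throughout, for COI, Live Single Cells (Cell Count): live means Hoechst-negative events among single cells.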

## CCCCCCCCCCCCCC(=O)N[C@H](C(=O)N[C@@H](Cc1ccccc1)C(=O)N[C@H](C(=O)N[C@@H](Cc1ccccc1)C(=O)N[C@@H](CCCNC(=N)N)C(=O)N[C@@H](CC(C)C)C(=O)N[C@@H](CCCNC(=N)N)C(=O)N[C@@H](CCCCN)C(=O)N[C@@H](C)C(=O)N[C@@H](CCCNC(=N)N)C(=O)N[C@@H](CCSC)C(=O)N[C@@H](CCSC)C(=O)N[C@@H](CC(=O)O)C(=O)N[C@H](C(=O)N[C@@H](CCCCN)C(=O)N[C@@H](CCCCN)C(N)=O)C(C)C)[C@@H](C)CC)[C@@H](C)O [Peptide 2815310, Myristoyl-TFIFRLRKARMMDVKK-NH2] (Myristoyl-TFIFRLRKARMMDVKK-NH2)
[1]
  Inhibition of CSCs (%) Repeat 1: 38.81%
  Inhibition of CSCs (%) Repeat 2: 39.40%
  Inhibition of CSCs (%) Repeat 3: 41.35%
  CD44^hiCD24^lo CSCs (%): 57.14%
  COI, Live Single CD44^hiCD24^lo CSCs (Cell Count): 4
  Average Inhibition of CSCs (%): 39.85%
  CD44^hiCD24^lo CSCs (%) Repeat 1: 54.84%
  CD44^hiCD24^lo CSCs (%) Repeat 2: 54.37%
  CD44^hiCD24^lo CSCs (%) Repeat 3: 52.63%
MDA-MB-231 cells
  COI (Cell Count): 18
  COI, Live Single Cells (Cell Count): 7
  COI, Single (Cell Count): 16
  Total Cell Count: 8883

## CCCCCCCCCCCCCC(=O)N[C@@H](CC(C)C)C(=O)N[C@H](C(=O)N[C@@H](Cc1ccccc1)C(=O)N[C@@H](CCC(=O)O)C(=O)N[C@@H](Cc1ccccc1)C(=O)N[C@@H](CCCNC(=N)N)C(=O)N[C@@H](CC(C)C)C(=O)N[C@@H](CCCNC(=N)N)C(=O)N[C@@H](CCCCN)C(=O)NCC(=O)N[C@@H](CCCNC(=N)N)C(=O)N[C@@H](CCSC)C(=O)N[C@@H](CCSC)C(=O)N[C@@H](CC(=O)O)C(=O)N[C@H](C(=O)N[C@@H](CCCCN)C(=O)N[C@@H](CCCCN)C(N)=O)C(C)C)[C@@H](C)O [Peptide 2853810, Myristoyl-LTFEFRLRKGRMMDVKK-NH2] (Myristoyl-LTFEFRLRKGRMMDVKK-NH2)
[1]
  Inhibition of CSCs (%) Repeat 1: 87.14%
  Inhibition of CSCs (%) Repeat 2: 87.82%
  Inhibition of CSCs (%) Repeat 3: 83.75%
  CD44^hiCD24^lo CSCs (%): 13.58%
  COI, Live Single CD44^hiCD24^lo CSCs (Cell Count): 74
  Average Inhibition of CSCs (%): 86.23%
  CD44^hiCD24^lo CSCs (%) Repeat 1: 11.53%
  CD44^hiCD24^lo CSCs (%) Repeat 2: 10.93%
  CD44^hiCD24^lo CSCs (%) Repeat 3: 14.58%
MDA-MB-231 cells
  COI (Cell Count): 778
  COI, Live Single Cells (Cell Count): 545
  COI, Single (Cell Count): 613
  Total Cell Count: 3451

## CCCCCCCCCCCCCC(=O)N[C@@H](CC(C)C)C(=O)N[C@H](C(=O)N[C@@H](Cc1ccccc1)C(=O)N[C@H](C(=O)N[C@@H](Cc1ccccc1)C(=O)N[C@@H](CCCNC(=N)N)C(=O)N[C@@H](CC(C)C)C(=O)N[C@@H](CCCNC(=N)N)C(=O)N[C@@H](CCCCN)C(=O)NCC(=O)N[C@@H](CCCNC(=N)N)C(=O)N[C@@H](CCSC)C(=O)N[C@@H](CCSC)C(=O)N[C@@H](CC(=O)O)C(=O)N[C@H](C(=O)N[C@@H](CCCCN)C(=O)N[C@@H](Cc1ccc(O)cc1)C(N)=O)C(C)C)[C@@H](C)CC)[C@@H](C)O [Peptide 2853847, Myristoyl-LTFIFRLRKGRMMDVKY-NH2] (Myristoyl-LTFIFRLRKGRMMDVKY-NH2)
[1]
  Inhibition of CSCs (%) Repeat 1: 25.89%
  Inhibition of CSCs (%) Repeat 2: 27.27%
  Inhibition of CSCs (%) Repeat 3: 26.71%
  CD44^hiCD24^lo CSCs (%): 62.59%
  COI, Live Single CD44^hiCD24^lo CSCs (Cell Count): 2640
  Average Inhibition of CSCs (%): 26.62%
  CD44^hiCD24^lo CSCs (%) Repeat 1: 66.42%
  CD44^hiCD24^lo CSCs (%) Repeat 2: 65.25%
  CD44^hiCD24^lo CSCs (%) Repeat 3: 65.76%
MDA-MB-231 cells
  COI (Cell Count): 5345
  COI, Live Single Cells (Cell Count): 4218
  COI, Single (Cell Count): 4268
  Total Cell Count: 10000

## CCCCCCCCCCCCCC(=O)N[C@@H](CC(C)C)C(=O)N[C@H](C(=O)N[C@@H](Cc1ccccc1)C(=O)N[C@H](C(=O)N[C@@H](Cc1ccccc1)C(=O)N[C@@H](CCCNC(=N)N)C(=O)N[C@@H](CC(C)C)C(=O)N[C@@H](CCCNC(=N)N)C(=O)N[C@@H](CCCCN)C(=O)NCC(=O)N[C@@H](CCCNC(=N)N)C(=O)N[C@@H](CCSC)C(=O)N[C@@H](CCC(=O)O)C(=O)N[C@@H](CC(=O)O)C(=O)N[C@H](C(=O)N[C@@H](CCCCN)C(=O)N[C@@H](CCCCN)C(N)=O)C(C)C)[C@@H](C)CC)[C@@H](C)O [Peptide 2853834, Myristoyl-LTFIFRLRKGRMEDVKK-NH2] (Myristoyl-LTFIFRLRKGRMEDVKK-NH2)
[1]
  Inhibition of CSCs (%) Repeat 1: 91.98%
  Inhibition of CSCs (%) Repeat 2: 92.08%
  Inhibition of CSCs (%) Repeat 3: 92.04%
  CD44^hiCD24^lo CSCs (%): 5.76%
  COI, Live Single CD44^hiCD24^lo CSCs (Cell Count): 22
  Average Inhibition of CSCs (%): 92.03%
  CD44^hiCD24^lo CSCs (%) Repeat 1: 7.18%
  CD44^hiCD24^lo CSCs (%) Repeat 2: 7.11%
  CD44^hiCD24^lo CSCs (%) Repeat 3: 7.14%
MDA-MB-231 cells
  COI (Cell Count): 890
  COI, Live Single Cells (Cell Count): 382
  COI, Single (Cell Count): 660
  Total Cell Count: 4207

## CCCCCCCCCCCCCC(=O)N[C@@H](CC(C)C)C(=O)N[C@H](C(=O)N[C@@H](Cc1ccccc1)C(=O)N[C@H](C(=O)N[C@@H](Cc1ccccc1)C(=O)N[C@@H](CCCNC(=N)N)C(=O)N[C@@H](CCC(=O)O)C(=O)N[C@@H](CCCNC(=N)N)C(=O)N[C@@H](CCCCN)C(=O)NCC(=O)N[C@@H](CCCNC(=N)N)C(=O)N[C@@H](CCSC)C(=O)N[C@@H](CCSC)C(=O)N[C@@H](CC(=O)O)C(=O)N[C@H](C(=O)N[C@@H](CCCCN)C(=O)N[C@@H](CCCCN)C(N)=O)C(C)C)[C@@H](C)CC)[C@@H](C)O [Peptide 2853821, Myristoyl-LTFIFRERKGRMMDVKK-NH2] (Myristoyl-LTFIFRERKGRMMDVKK-NH2)
[1]
  Inhibition of CSCs (%) Repeat 1: 85.54%
  Inhibition of CSCs (%) Repeat 2: 87.64%
  Inhibition of CSCs (%) Repeat 3: 89.89%
  CD44^hiCD24^lo CSCs (%): 13.00%
  COI, Live Single CD44^hiCD24^lo CSCs (Cell Count): 289
  Average Inhibition of CSCs (%): 87.69%
  CD44^hiCD24^lo CSCs (%) Repeat 1: 12.96%
  CD44^hiCD24^lo CSCs (%) Repeat 2: 11.09%
  CD44^hiCD24^lo CSCs (%) Repeat 3: 9.08%
MDA-MB-231 cells
  COI (Cell Count): 2756
  COI, Live Single Cells (Cell Count): 2223
  COI, Single (Cell Count): 2240
  Total Cell Count: 7421

## CCCCCCCCCCCCCC(=O)N[C@@H](CC(C)C)C(=O)N[C@@H](CCC(=O)O)C(=O)N[C@@H](Cc1ccccc1)C(=O)N[C@H](C(=O)N[C@@H](Cc1ccccc1)C(=O)N[C@@H](CCCNC(=N)N)C(=O)N[C@@H](CC(C)C)C(=O)N[C@@H](CCCNC(=N)N)C(=O)N[C@@H](CCCCN)C(=O)NCC(=O)N[C@@H](CCCNC(=N)N)C(=O)N[C@@H](CCSC)C(=O)N[C@@H](CCSC)C(=O)N[C@@H](CC(=O)O)C(=O)N[C@H](C(=O)N[C@@H](CCCCN)C(=O)N[C@@H](CCCCN)C(N)=O)C(C)C)[C@@H](C)CC [Peptide 2853804, Myristoyl-LEFIFRLRKGRMMDVKK-NH2] (Myristoyl-LEFIFRLRKGRMMDVKK-NH2)
[1]
  Inhibition of CSCs (%) Repeat 1: 85.86%
  Inhibition of CSCs (%) Repeat 2: 80.73%
  Inhibition of CSCs (%) Repeat 3: 86.58%
  CD44^hiCD24^lo CSCs (%): 13.77%
  COI, Live Single CD44^hiCD24^lo CSCs (Cell Count): 19
  Average Inhibition of CSCs (%): 84.39%
  CD44^hiCD24^lo CSCs (%) Repeat 1: 12.67%
  CD44^hiCD24^lo CSCs (%) Repeat 2: 17.29%
  CD44^hiCD24^lo CSCs (%) Repeat 3: 12.05%
MDA-MB-231 cells
  COI (Cell Count): 360
  COI, Live Single Cells (Cell Count): 138
  COI, Single (Cell Count): 203
  Total Cell Count: 1384
